According to patent US7354737B2, “Biomolecule transduction motif Sim-2-BTM and the use thereof” (ForHumanTech Co., Ltd., priority 2002, dated 2008):

Tests used:
[1] = system: HUVEC, HeLa, 293 and Jurkat cells; experiment: Transduction of fusion protein across cell membrane, β-galactosidase staining and microscopy; type: cell-based; conditions: 0.5 μM, 30 min, 37° C., HeLa, 293, Jurkat cells
Experimental: HUVEC (ATCC:CRL-1730) (2×10^5), HeLa (ATCC:CCL-2) (2×10^5), and 293 (ATCC:CRL-1573) (2×10^5), which were incubated in 10% FBS (Fetal Bovine Serum) of DMEM, were respectively transferred to Lab-tek II chamber slides. Jurkat cells (ATCC:CRL-10915) (2×10^5) incubated in 10% FBS RPMI were transferred to poly-L-lysin coated slide. Each of the slides was treated with the purified 0.5 μM of Sim-2-β-galactosidase for 30 min at 37° C. in 5% CO2 incubator. And the supernatants were removed from the slides. The incubation mixtures were washed using ice-cold PBS four times and then were solidified with 2% formaldehyde solution for 10 min. After removing the solidified solutions, the mixtures were washed again using ice-cold PBS four times. Subsequently, the respective mixtures were treated with 700 μl of β-galactosidase staining solution (Roche. Co.) for 45 min at 37° C. in 5% CO2 incubator. Following the staining, the mixtures were washed with ice-cold PBS four times after removing the supernatants. Next, the mixtures were mounted with 70% glycerol on the microscope slides.

Jurkat T cells = experiment: Transduction of insulin fusion proteins, detected using mAb to insulin; type: cell-based; conditions: detected with mAb to insulin
Excerpt: A fusion protein of Sim-2 BTM and biologically active functional regulatory protein, which was expressed and purified from bacteria, was reformed so as to have natural folding structure and functions. Specifically, the fusion protein isolated and purified from bacteria was transferred again into CHO (Chinese hamster ovary) cells, and then the fusion protein, which had complete folding structure and functions found in natural state, was isolated and purified. As for purified 2 (two) types of fusion proteins, biological activity regulating capabilities were examined. For this examination, an expression vector pSim-2-insulin was designed in order to prepare fusion protein between Sim-2 BTM and human insulin. In order to make this expression vector, a 5′ primer of SEQ. ID No.:17 comprising nucleic acid sequence of Xba I restriction enzyme, nucleic acid sequence of Sim-2 BTM and N-terminal nucleic acid sequence of human insulin, and a 3′ primer of SEQ. ID No.:18 comprising nucleic acid sequence of Hind m and C-terminal nucleic acid sequence of human insulin were prepared. Then, PCR amplification was carried out using human pancreas beta cells prepared in our laboratory, as a template, and using the primers above mentioned. […] Following the treatment, the transduction level of insulin into the cells was detected using mAb to the insulin and was compared.

[2] = system: Streptozotocin-Induced diabetic mice; experiment: Blood glucose level lowering in Streptozotocin-Induced diabetic mice; type: in vivo; conditions: IP injection (1-10 mM)
Experimental: Blood glucose level lowering was examined using Sim-2-insulin and Sim-2-insulin-PR in the Example 13 with Streptozotocin-Induced diabetic mice. After 3 (three) days of abstinence, STZ (Sigma Chemical Co, St Louis, USA) (60 mg/kg) were […]. Insulin dependent diabetic mice were defined having 20 mmol/L or more blood glucose level together with other diabetic syndrome such as polyurea etc. All the in vivo studies were carried out after 2 weeks from the induction of diabetes. Recombinant insulin alone, Sim-2-insulin and Sim-2-insulin-PR in the Example 13 were, respectively, administered to the mice by IP injection (1-10 mM), and the blood glucose levels in the mice were monitored. In order to analyze the level of blood glucose, about 0.2 ml of blood was collected from each of the mice after anesthetizing them, and then the blood was subject to centrifuge at 13,000 rpm for 3 min. Next, about […] of serum was added to 1.5 ml of glucose kit agent (BiosystemSA, Barcelona, Spain) and the mixture was incubated at 37° C. for 10 min in water-bath. The level of blood glucose was detected with blood glucose analyzer (Quik-Lab, Ames, Miles Inc. Elkart, Ind., USA).

## β-gal: β-galactosidase reporter protein not fused to Sim-2
[1]
  transduction across the cell membranes (β-galactosidase staining): not transduced at all

## Recombinant insulin: recombinant insulin not fused to Sim-2 BTM
Jurkat T cells
  transduction level of insulin into Jurkat T cells: almost none
[2]; after administration
  blood glucose level, After administration: 2320
[2]; before administration
  blood glucose level, Before administration: 5600
[2]; from Table 3
  lowering of blood glucose level: 50%
